Test results as given in article PMC4097363, “Trace amines inhibit insect odorant receptor function through antagonism of the co-receptor subunit” (F1000Research, 2014).
Read-outs that look alike come from different tables or passages of the source.

Key:
Cqui\Orco [1] = biological target: T1, Cqui\Orco (Culex quinquefasciatus, UniProt Q309I4); experiment: Antagonism of OLC12 activation of Orco in Xenopus oocytes; type: cell-based; conditions: for inhibition at 100 µM: read-out: inhibition of the OLC12 response
T1 sequence (Q309I4 entry or part of it): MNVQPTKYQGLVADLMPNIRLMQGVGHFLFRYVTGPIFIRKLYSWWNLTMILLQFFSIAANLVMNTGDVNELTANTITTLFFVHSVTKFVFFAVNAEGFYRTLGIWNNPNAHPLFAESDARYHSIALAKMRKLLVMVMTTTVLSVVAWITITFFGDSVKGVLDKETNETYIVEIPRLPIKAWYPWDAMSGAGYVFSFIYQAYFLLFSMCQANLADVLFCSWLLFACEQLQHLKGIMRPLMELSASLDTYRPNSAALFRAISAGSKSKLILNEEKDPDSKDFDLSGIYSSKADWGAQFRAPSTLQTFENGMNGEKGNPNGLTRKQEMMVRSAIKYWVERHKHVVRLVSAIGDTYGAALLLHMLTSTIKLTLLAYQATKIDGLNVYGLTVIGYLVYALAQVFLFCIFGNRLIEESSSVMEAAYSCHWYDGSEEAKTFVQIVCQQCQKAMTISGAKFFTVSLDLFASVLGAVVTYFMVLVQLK
Procedure: (§1) Follicle cells were removed by treatment with collagenase B (Boehringer Mannheim) for 2 hours at room temperature. Capped cRNA encoding each OR subunit was generated using mMessage mMachine kits (Ambion). For heteromeric ORs, 25 ng of cRNA encoding each OR subunit was injected into Stage V-VI Xenopus oocytes. For expression of Orco homomers, 50 ng of cRNA was injected. Oocytes were incubated at 18°C in Barth's saline (in mM: 88 NaCl, 1 KCl, 2.4 NaHCO 3, 0.3 CaNO 3, 0.41 CaCl 2, 0.82 MgSO 4, 15 HEPES, pH 7.6, and 150µg/ml ceftazidime) for 2–5 days prior to electrophysiological recording.
(§2) Odorant and Orco ligand induced currents were recorded under two-electrode voltage clamp, using an automated parallel electrophysiology system (OpusExpress 6000A, Molecular Devices). Oocytes were perfused with ND96 (in mM: 96 NaCl, 2 KCl, 1 CaCl 2, 1 MgCl 2, 5 HEPES, pH 7.5). Orco ligands were prepared as 50 or 100 mM stock solutions in DMSO and then diluted into ND96 on the day of the experiment. Odorants were prepared as 100 mM stock solutions in DMSO and then diluted into ND96. Unless otherwise noted, applications were for 60 sec at a flow rate of 1.0 ml/min, with extensive washing in ND96 at 4.6 ml/min between applications. Micropipettes were filled with 3 M KCl and had resistances of 0.2–2.0 MΩ. The holding potential was -70 mV. Current responses, filtered (4-pole, Bessel, low pass) at 20 Hz (-3 db) and sampled at 100 Hz, were captured and stored using OpusXpress 1.1 software (Molecular Devices).
(§3) To screen for agonist activity, oocytes were exposed to 30 sec applications of candidate compounds with 5 min washes between applications ( Figure 2A). For the concentration-response protocol ( Table 1), applications were for 20 sec at a flow rate of 1.65 ml/min. To measure antagonist activity at Orco ( Figure 2B, 2C, Figure 3, Figure 4A and Figure 5A), oocytes were exposed to two 60 sec applications of the synthetic Orco agonist OLC12 (2-((4-Ethyl-5-(4-pyridinyl)-4H-1,2,4-triazol-3-yl)sulfanyl)-N-(4-isopropylphenyl)acetamide) with 4 min washes between applications. Oocytes were then exposed to a 90 sec application of antagonist candidate, immediately followed by a 60 sec co-application of antagonist candidate and OLC12. The current response in the presence of antagonist candidate was compared to the mean of the preceding two responses to OLC12 alone and is presented as a percentage.
(§4) Initial analysis of electrophysiological data was done using Clampfit 9.1 software (Molecular Devices). Curve fitting and statistical analyses were done using Prism 5 (Graphpad). Concentration-inhibition data were fit to the equation: I = I max/(1+ (X/IC 50) ^n) where I represents the current response at a given concentration of inhibitor, X; I max is the maximal response in the absence of inhibitor; IC 50 is the concentration of inhibitor present that still allows a half maximal response from odorant; n is the apparent Hill coefficient. Concentration-response data were fit to the equation: I = I max/(1+(EC 50/X) ^n) where I represents the current response at a given concentration of odorant, X; I max is the maximal response; EC 50 is the concentration of agonist yielding a half maximal response; n is the apparent Hill coefficient. Statistical significance (p<0.05) was assessed using a two-tailed unpaired t test, an F test, or a one-way analysis of variance followed by the Dunnett's post-test, as appropriate.

Dmel\Orco = biological target: T2, Dmel\Orco (Drosophila melanogaster, UniProt Q9VNB5); experiment: Agonist concentration-response, two-electrode voltage clamp in Xenopus oocytes; type: cell-based
T2 sequence (Q9VNB5 1-486): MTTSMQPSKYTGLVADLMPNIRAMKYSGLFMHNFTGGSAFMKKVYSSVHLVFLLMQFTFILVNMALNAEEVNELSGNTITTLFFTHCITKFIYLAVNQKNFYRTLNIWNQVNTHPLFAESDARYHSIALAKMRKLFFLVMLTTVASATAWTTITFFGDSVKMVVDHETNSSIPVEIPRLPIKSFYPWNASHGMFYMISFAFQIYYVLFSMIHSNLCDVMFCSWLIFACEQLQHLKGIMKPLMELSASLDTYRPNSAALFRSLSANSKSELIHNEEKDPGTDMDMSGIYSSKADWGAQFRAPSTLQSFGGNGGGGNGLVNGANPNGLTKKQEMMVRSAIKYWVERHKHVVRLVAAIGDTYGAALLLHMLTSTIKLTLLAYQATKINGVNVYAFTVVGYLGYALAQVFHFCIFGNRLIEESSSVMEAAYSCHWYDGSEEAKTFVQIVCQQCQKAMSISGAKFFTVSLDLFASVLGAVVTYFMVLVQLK
Procedure: as §1, §2, §3, §4

Agam\Orco = biological target: T3, Agam\Orco (Anopheles gambiae, UniProt Q7QCC7); experiment: as above; type: cell-based
T3 sequence (Q7QCC7 1-478): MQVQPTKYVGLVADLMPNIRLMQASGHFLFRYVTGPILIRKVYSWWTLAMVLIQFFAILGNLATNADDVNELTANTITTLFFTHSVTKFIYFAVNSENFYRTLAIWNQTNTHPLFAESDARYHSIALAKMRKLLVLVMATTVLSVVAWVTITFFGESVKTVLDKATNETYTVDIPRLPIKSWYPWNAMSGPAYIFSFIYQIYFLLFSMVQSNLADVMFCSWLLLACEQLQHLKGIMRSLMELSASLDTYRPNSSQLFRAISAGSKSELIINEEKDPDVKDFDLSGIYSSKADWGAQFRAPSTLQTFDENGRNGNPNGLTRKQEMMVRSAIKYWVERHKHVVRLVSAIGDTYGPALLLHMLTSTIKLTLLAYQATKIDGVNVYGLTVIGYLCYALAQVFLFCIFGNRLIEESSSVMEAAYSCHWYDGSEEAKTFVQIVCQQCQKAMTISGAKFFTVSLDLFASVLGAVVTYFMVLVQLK
Procedure: as §1, §2, §3, §4

Cqui\Orco [2] = biological target: T1, Cqui\Orco; experiment: as above; type: cell-based
Procedure: as §1, §2, §3, §4

Onub\Orco + Onub\Or6 = Onub\Orco + Onub\Or6 (Ostrinia nubilalis, UniProt D3J5H5); experiment: as above; type: cell-based
Sequence of Onub\Orco + Onub\Or6 (D3J5H9 entry or part of it): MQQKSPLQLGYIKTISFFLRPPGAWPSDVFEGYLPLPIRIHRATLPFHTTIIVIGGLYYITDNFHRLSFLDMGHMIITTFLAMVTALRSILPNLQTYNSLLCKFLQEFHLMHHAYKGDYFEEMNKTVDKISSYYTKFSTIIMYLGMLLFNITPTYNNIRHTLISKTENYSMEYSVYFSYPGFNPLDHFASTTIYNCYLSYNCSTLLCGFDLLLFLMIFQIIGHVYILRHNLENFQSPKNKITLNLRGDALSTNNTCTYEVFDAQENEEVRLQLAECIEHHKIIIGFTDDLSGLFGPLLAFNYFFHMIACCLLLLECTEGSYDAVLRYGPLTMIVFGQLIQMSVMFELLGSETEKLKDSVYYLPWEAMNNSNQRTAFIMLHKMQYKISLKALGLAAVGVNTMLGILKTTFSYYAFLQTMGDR
Sequence of Onub\Orco + Onub\Or6 (D3J5H5 entry or part of it): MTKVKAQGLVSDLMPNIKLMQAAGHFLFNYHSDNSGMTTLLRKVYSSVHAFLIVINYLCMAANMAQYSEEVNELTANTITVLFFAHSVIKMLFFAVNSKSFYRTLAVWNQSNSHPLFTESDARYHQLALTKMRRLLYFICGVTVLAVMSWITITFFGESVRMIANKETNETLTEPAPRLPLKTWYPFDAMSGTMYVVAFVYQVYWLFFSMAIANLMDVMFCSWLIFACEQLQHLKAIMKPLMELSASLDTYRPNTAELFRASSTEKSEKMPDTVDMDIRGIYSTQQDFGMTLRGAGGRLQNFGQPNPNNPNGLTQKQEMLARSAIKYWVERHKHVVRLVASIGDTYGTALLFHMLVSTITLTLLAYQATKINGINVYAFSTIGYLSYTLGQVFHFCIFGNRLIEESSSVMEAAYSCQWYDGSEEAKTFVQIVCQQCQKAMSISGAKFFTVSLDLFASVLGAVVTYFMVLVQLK
Procedure: as §1, §2, §3, §4

Dmel\Orco + Dmel\Or35a = biological target: T4, Dmel\Orco + Dmel\Or35a (Drosophila melanogaster, UniProt Q9VNB5); experiment: as above; type: cell-based
T4 sequence (Q9VNB5 1-486): T2 sequence (Q9VNB5 1-486)
T4 sequence (Q9V3Q2 1-409 partner): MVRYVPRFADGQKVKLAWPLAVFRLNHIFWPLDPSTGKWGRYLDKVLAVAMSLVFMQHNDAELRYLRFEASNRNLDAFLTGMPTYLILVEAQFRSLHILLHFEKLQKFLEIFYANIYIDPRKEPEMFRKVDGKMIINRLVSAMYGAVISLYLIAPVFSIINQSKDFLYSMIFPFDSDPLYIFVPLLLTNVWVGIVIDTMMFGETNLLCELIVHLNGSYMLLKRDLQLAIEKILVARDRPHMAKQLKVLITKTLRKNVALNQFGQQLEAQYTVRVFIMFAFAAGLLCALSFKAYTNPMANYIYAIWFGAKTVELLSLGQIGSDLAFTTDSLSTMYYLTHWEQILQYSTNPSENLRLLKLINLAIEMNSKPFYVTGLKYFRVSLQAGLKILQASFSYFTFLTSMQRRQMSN
Procedure: as §1, §2, §3, §4

Agam\Orco + Agam\Or65 [3] = biological target: T5, Agam\Orco + Agam\Or65 (Anopheles gambiae, UniProt Q7QCC7); experiment: Odorant and Orco agonist concentration-response, two-electrode voltage clamp in Xenopus oocytes; type: cell-based
T5 sequence (Q7QCC7 1-478): T3 sequence (Q7QCC7 1-478)
Procedure: as §1, §2, §3, §4

Agam\Orco + Agam\Or65 [4] = experiment: as above; type: cell-based
Procedure: as §1, §2, §3, §4

Agam\Orco + Agam\Or31 = experiment: Odorant concentration-response, two-electrode voltage clamp in Xenopus oocytes; type: cell-based, Anopheles gambiae
Procedure: as §1, §2
To screen for agonist activity, oocytes were exposed to 30 sec applications of candidate compounds with 5 min washes between applications ( Figure 2A). For the concentration-response protocol ( Table 1), applications were for 20 sec at a flow rate of 1.65 ml/min. […]
Initial analysis of electrophysiological data was done using Clampfit 9.1 software (Molecular Devices). […] Statistical significance (p<0.05) was assessed using a two-tailed unpaired t test, an F test, or a one-way analysis of variance followed by the Dunnett's post-test, as appropriate.

[5] = Cqui\Orco activated by 30µM OLC12 (~EC5), 100µM of each amine, mean ± SEM, n = 3-10
[6] = normalizing conc. 30µM geranyl acetate

COc1ccc2[nH]cc(CCNC(C)=O)c2c1 [melatonin]
inhibition at 100 µM (Cqui\Orco [1]; [5]): 13 ± 1%

CCn1c(SCC(=O)Nc2ccc(C(C)C)cc2)nnc1-c1ccncc1 [OLC12, 2-((4-Ethyl-5-(4-pyridinyl)-4H-1,2,4-triazol-3-yl)sulfanyl)-N-(4-isopropylphenyl)acetamide]
Fit Max (Dmel\Orco; normalized to 10µM OLC12): 36 ± 4
EC50 (Dmel\Orco; normalizing conc. 10µM OLC12): 36 ± 4 µM
n H (apparent Hill coefficient) (Dmel\Orco; normalizing conc. 10µM OLC12): 3.9 ± 1.9
Fit Max (Agam\Orco; normalized to 30µM OLC12): 47 ± 2
n H (apparent Hill coefficient) (Agam\Orco; normalizing conc. 30µM OLC12): 2.4 ± 0.3
EC50 (Agam\Orco; normalizing conc. 30µM OLC12, mean ± SEM): 124 ± 9 µM
Fit Max (Cqui\Orco [2]; normalized to 30µM OLC12): 48 ± 2
EC50 (Cqui\Orco [2]; normalizing conc. 30µM OLC12): 95 ± 6 µM
n H (apparent Hill coefficient) (Cqui\Orco [2]; normalizing conc. 30µM OLC12): 2.5 ± 0.3
EC50 (Onub\Orco + Onub\Or6): 100 ± 4 µM
Fit Max (Onub\Orco + Onub\Or6; Onub\Orco + Onub\Or6, normalized to 100µM OLC12): 2.0 ± 0.1
n H (apparent Hill coefficient) (Onub\Orco + Onub\Or6; Onub\Orco + Onub\Or6, normalizing conc. 100µM OLC12): 2.1 ± 0.2
Fit Max (Dmel\Orco + Dmel\Or35a; normalized to 10µM OLC12): 4.7 ± 0.4
EC50 (Dmel\Orco + Dmel\Or35a; normalizing conc. 10µM OLC12): 20 ± 5 µM
n H (apparent Hill coefficient) (Dmel\Orco + Dmel\Or35a; normalizing conc. 10µM OLC12): 1.9 ± 0.8
Fit Max (Agam\Orco + Agam\Or65 [3]; normalized to 30µM OLC12): 5.7 ± 0.3
EC50 (Agam\Orco + Agam\Or65 [3]; normalizing conc. 30µM OLC12): 67 ± 6 µM
n H (apparent Hill coefficient) (Agam\Orco + Agam\Or65 [3]; normalizing conc. 30µM OLC12): 2.0 ± 0.3

C=CCc1ccc(O)c(OC)c1 [Eugenol, eugenol]
Fit Max (Agam\Orco + Agam\Or65 [4]; normalized to 1µM eugenol): 1.0 ± 0.03
EC50 (Agam\Orco + Agam\Or65 [4]; normalizing conc. 1µM eugenol): 80 ± 10 nM
n H (apparent Hill coefficient) (Agam\Orco + Agam\Or65 [4]; normalizing conc. 1µM eugenol): 0.9 ± 0.1

CNC[C@H](O)c1ccc(O)c(O)c1 [epinephrine]
inhibition at 100 µM (Cqui\Orco [1]): 9 ± 3%

NCCc1c[nH]c2ccc(O)cc12 [serotonin]
inhibition at 100 µM (Cqui\Orco [1]; [5]): 23 ± 3%

NC[C@H](O)c1ccc(O)c(O)c1 [norepinephrine]
inhibition of the OLC12 response (Cqui\Orco [1]; [5]): inactive

CC(=O)OC/C=C(\C)CCC=C(C)C [Geranyl Acetate, geranyl acetate]
Fit Max (Agam\Orco + Agam\Or31; normalized to 30µM geranyl acetate): 2.9 ± 0.3
EC50 (Agam\Orco + Agam\Or31; [6]): 65 ± 23 µM
n H (apparent Hill coefficient) (Agam\Orco + Agam\Or31; [6]): 1.0 ± 0.3

NCCc1c[nH]cn1 [Histamine, histamine]
inhibition at 100 µM (Cqui\Orco [1]): 16 ± 8%

NCCc1ccccc1 [phenethylamine]
IC50 (Cqui\Orco [1]): 117 ± 12 µM
less potent than tryptamine (IC50 ratio) (Cqui\Orco [1]; Cqui\Orco activated by 30µM OLC12): 25 fold
inhibition at 100 µM (Cqui\Orco [1]; [5]): 41 ± 1%

CN(C)Cc1c[nH]c2ccccc12 [gramine]
inhibition at 100 µM (Cqui\Orco [1]; [5]): 30 ± 4%

NCCc1ccc(O)c(O)c1 [dopamine]
inhibition of the OLC12 response (Cqui\Orco [1]): inactive

NCC(O)c1ccc(O)cc1 (centres unmarked) [Octopamine, octopamine]
inhibition of the OLC12 response (Cqui\Orco [1]; [5]): inactive
